Molecules are shown by their SMILES.

These results are taken from US20150157575A1, “Pharmaceutical Formulations Comprising Vilazodone” (Forest Laboratories Holdings Ltd., priority 2013, published 2015).

A short description of data set [1]: Study 2: single-dose pharmacokinetics in severe hepatic impairment and matched healthy controls. The conditions noted are these: for AUC(0-inf) / Cmax / Tmax / half-life: both, human, plasma, po, 20 mg, vilazodone 20 mg single oral dose; for AUC(0-inf): AUC0-∞. The protocol: The pharmacokinetics, tolerability, and safety of vilazodone were investigated in two separate trials involving participants with hepatic impairment, compared with healthy controls. An Open-label, parallel-group, single-dose pharmacokinetic studies, a single, oral dose of vilazodone (20 mg with increased hardness) was administered to participants with mild, moderate, or severe hepatic impairment or individually matched controls. Outcomes included pharmacokinetic parameters and safety (vital signs, clinical laboratory evaluations, ECG, and adverse events [AEs]). Plasma samples were analyzed using validated LC/MS/MS methods.
Data from two, open-label, parallel-group, single-dose pharmacokinetic studies investigated single-dose vilazodone (20 mg with increased hardness) in participants with hepatic impairment and normal hepatic function. The first study (Study 1) included participants with mild or moderate hepatic impairment and healthy controls. The second study (Study 2) included participants with severe hepatic impairment or healthy participants. These studies were both designed in accordance with the FDA guidance for evaluation of pharmacokinetics in the presence of hepatic impairment. The differences between the study protocols were minimal, so both methodologies are described together, with any differences noted below.
Participants were men and women, 18 to 70 years of age, with a body mass index (BMI) of 18-42 kg/m^2. Women were not pregnant or breastfeeding and agreed to utilize a medically accepted form of contraception during the study (as did men in Study 2). In Study 2, participants were also required to be non-smokers or light smokers (fewer than 10 cigarettes per day; there was no stipulation in Study 1) and to have a sitting pulse rate of 50-100 bpm at screening and prior to dosing on Day 1. […] Each healthy control was matched with a hepatically impaired participant. Control participants in the Study 1 were matched with a hepatically impaired individual according to age (±10 years), sex, and BMI (±15%). Control participants in Study 2 were matched with a hepatically impaired individual according to age (±5 years), sex, and weight (±10%).
Participants with hepatic dysfunction were classified according to the Child-Pugh hepatic dysfunction staging system as having mild (5-6 points) or moderate (7-9 points) hepatic impairment (Study 1), or severe impairment (10-15 points; Study 2). Participants with severe impairment also had chronic liver disease and/or compensated cirrhosis, as evidenced by liver biopsy, computerized tomography or ultrasonic evidence of hepatic fibrosis, clinical evidence of chronic liver disease, or a colloid shift on a liver-spleen scan. Exclusion criteria included the following: a clinical diagnosis or history of depression; treatment with antidepressants, anxiolytics, psychoactive medications (including herbal supplements), other serotonergic drugs, or drugs that inhibit CYP3A4 (eg, ketoconazole, diltiazem, macrolide antibiotics); a hypersensitivity to vilazodone or other SSRIs or 5-HT agonists; history or evidence of alcohol or substance abuse, cancer, human immunodeficiency virus, hepatitis B (Study 1 and healthy controls, both studies) hepatitis C (healthy controls, both studies), or other clinically significant illnesses or medical conditions. Participants with severe hepatic impairment were excluded if they had bleeding diathesis, advanced ascites requiring large-volume paracentesis within 1 week of dosing, esophageal bleeding within the previous 8 weeks, history of portosystemic shunt or hepatic transplant, or evidence of hepatic encephalopathy, hepatorenal syndrome, or other evidence of rapid hepatic deterioration.
Participants were not allowed to have previously taken vilazodone or participated in any clinical investigation requiring repeated blood draws within 60 days of dosing, or donated blood or plasma within 60 or 30 days, respectively.

Data set [2] can be described thus: clinical. More on the design: species or system human. The conditions noted are these: in vivo. How it is done: An open-label, multiple-dose, single-sequence study to evaluate the effect of steady-state carbamazepine XR, 400 mg once daily, a CYP3A4 substrate and inducer, on the pharmacokinetics of steady-state vilazodone 40 mg tablets once daily, with hardness of more than 10 kp and less than 14 kp, preferably about 12 kp as shown in Table 3 (No Tablet Breakage). Vilazodone was co-administered with carbamazepine XR (extended release formulation). Carbamazepine is an antiepileptic drug approved for the treatment of psychomotor and grand mal seizures is metabolized by CYP3A4, and is a CYP3A4 inducer.
All subjects were healthy, nonsmoking male or female volunteers who were 18-45 (Study 2) years of age. Inclusion and exclusion criteria were typical of the criteria used in pharmacokinetic studies in healthy volunteers as known in the art. Inclusion criteria used included agreement to use an effective measure of contraception, body mass index (BMI)>18 and ≦30 kg/m^2 (BMI=18 allowed), normal or clinically non-significant results on physical examination, medical history, serum chemistry, hematology, and urinalysis; negative hepatitis B antigen and C antibody tests, and negative HIV test at screening. Exclusion criteria included clinically significant electrocardiogram results or QT prolongation, clinically significant disease state, history of alcohol abuse, ingestion of food, drink, or drug that may interfere with CYP enzyme activity (e.g., cruciferous vegetables, caffeine, alcohol), known sensitivity to study drug or other drugs from the same class, and use of prohibited concomitant prescription or over-the counter medications.
All volunteers received 4 treatments (A, B, C, and D) in the same, fixed sequence: Treatment A consisted of vilazodone alone on Days 1-9 and was followed by a 14-day washout, Treatment B was carbamazepine XR alone for 19 days (Days 24-42), Treatment C was vilazodone plus carbamazepine XR for 9 days (Days 43-51), and Treatment D was carbamazepine alone for 3 days (Days 52-54). Once-daily doses of study drug were administered in the morning after breakfast; twice-daily doses were administered in the morning after breakfast and 12 hours later in the evening after dinner Study drug was administered within 30 minutes after the end of the corresponding meal.
Blood samples to determine plasma concentrations of vilazodone, M17 (the metabolite of vilazodone), carbamazepine, and carbamazepine-10,11-epoxide (one of the pharmacologically active metabolites of carbamazepine) were collected into tubes pretreated with K2EDTA. For vilazodone and M17 analyses, blood samples (approximately 6 mL) were collected at pre-dose on Days 1, 7, 8, 49, and 50. […] For the analyses of carbamazepine and carbamazepine-10,11-epoxide, blood samples were collected at pre-dose on Days 24, 40, 41, 49 and 50.
Blood samples were centrifuged at no less than 2500 g for 10 minutes at 4° C. within 30 minutes of the sample draw. Plasma was harvested and transferred to polypropylene tubes and flash frozen in a dry ice bath with isopropyl alcohol or methanol. Samples for vilazodone analyses were stored at approximately −70° C. and analyzed. Samples for carbamazepine analyses were stored at −20° C. and analyzed.
Plasma samples were analyzed for vilazodone, M17, carbamazepine and/or carbamazepine-10,11-epoxide concentrations using liquid chromatography coupled with tandem mass spectrometry (LC/MS/MS). For vilazodone and M17, analytes of interest were detected by electrospray ionization mass spectrometry in the negative ion multiple reaction monitoring mode. The assay was linear in the concentration range of 0.5 to 250 ng/mL for vilazodone and 0.25 to 125 ng/mL for M17.
Based on 50 ìL of human plasma with K2EDTA as the anticoagulant, the lower limit of quantification (LLOQ) was 0.5 ng/mL for vilazodone and 0.25 ng/mL for M17. […]

The mark [3] stands for this setting: Control matched to Severe Impairment n = 8.
Where [4] appears, read: Severe Impairment n = 4 (who did not vomit).

What is called AUC(0-inf) is total exposure, with the tail of the curve extrapolated. A low value points to low exposure. Usually Cmax stands for the peak of the concentration-time curve. Broadly, the Tmax is the time at which the peak concentration occurs. Broadly, the half-life is how long it takes for the measured level to halve. Low readings indicate fast loss, high ones slow loss. In the case of `N#Cc1ccc2[nH]cc(CCCC(=O)O)c2c1` [M17], the AUC(0-inf) was determined as 51.4 ± 21.4 ng·h/mL in data set [1] (setting [3]) and 29.9 ± 8.15 ng·h/mL in data set [1] (setting [4]). For the same molecule, the Cmax in data set [1] (setting [3]) amounted to 1.95 ± 0.56 ng/mL; in data set [1] (setting [4]) it was 1.64 ± 0.56 ng/mL. Further, the time to peak (Tmax) is 6 ± 4.14 h in data set [1] (Tmax (mean), Control matched to Severe Impairment n = 8); 4.25 ± 1.26 h in data set [1] (Tmax (mean), Severe Impairment n = 4 (who did not vomit)); 5 h in data set [1] (Tmax, Median, Control matched to Severe Impairment n = 8); 4 h in data set [1] (Tmax, Median, Severe Impairment n = 4 (who did not vomit)). In addition, the half-life in data set [1] (t1/2, Control matched to Severe Impairment n = 8) was 17.4 ± 4.25 h; in data set [1] (t1/2, Severe Impairment n = 4 (who did not vomit)) it was 17.8 ± 9.57 h. The “ratio of M17 to vilazodone (AUC0-∞)” value in data set [1] (normal controls) came to 0.07; in data set [1] (severe hepatic impairment), 0.05. The “mean AUC0-∞ lower than in normal controls” value in data set [1] (severe impairment (who did not vomit) vs normal controls, vilazodone 20 mg single dose) is reported as “approximately 42%”.
In turn, `NC(=O)N1c2ccccc2C=Cc2ccccc21` [Carbamazepine, carbamazepine] returned a concentration at 42 day in data set [2] (both sexes, human, Cavg, ss, Mean (SD)) of 5500 ng/mL. Further, the Tmax in data set [2] (both sexes, human, tmax, Median (min-max)) turned out to be 10 h.
`NC(=O)N1c2ccccc2C2OC2c2ccccc21` (centres unmarked) [carbamazepine-10,11-epoxide]: the “tmax, Median (min-max)” value in data set [2] (human) was 12.0 h. In addition, the “Cavg, ss, Mean (SD)” value in data set [2] is recorded as 0.6 (0.2) μg/mL.
